Read-outs that look alike come from different tables or passages of the source.
Target: T1, G1 APOL1 (Homo sapiens, UniProt O14791, I384M/S342G)
T1 construct: expressed in transfected cells
T1 sequence (O14791 28-398 S342G/I384M): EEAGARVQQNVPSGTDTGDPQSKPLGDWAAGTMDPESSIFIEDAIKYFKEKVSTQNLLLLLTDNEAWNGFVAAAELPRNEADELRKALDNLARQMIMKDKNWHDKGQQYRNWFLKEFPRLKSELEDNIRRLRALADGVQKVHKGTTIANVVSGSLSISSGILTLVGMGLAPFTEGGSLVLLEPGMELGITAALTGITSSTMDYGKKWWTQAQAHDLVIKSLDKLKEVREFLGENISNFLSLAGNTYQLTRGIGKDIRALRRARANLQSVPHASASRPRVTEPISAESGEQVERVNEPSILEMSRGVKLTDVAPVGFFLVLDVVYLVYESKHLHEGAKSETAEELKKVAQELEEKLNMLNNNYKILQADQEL
Assay: Acute APOL1 Thallium Assay with inducible stable clones of HEK 293 cells
Format: cell-based
Conditions: read-out: Thallium Assay (IC50)
Procedure, shortened: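 Readout: Tl+-triggered fluorescence, FLIPR, reflecting potassium flux through APOL1 pores after cells take up an AM-ester thallium indicator. Cells: HEK T-Rex stable clone G1 DC3.25, APOL1 G1 induced by tetracycline, seeded 26000 per well.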

[1] = HEK 293 T-Rex cells expressing G1 APOL1

| SMILES | IC50 (Table 24, Compounds 287 to 465) | IC50 [1] |
| --- | --- | --- |
| O=C(NC(CO)(CO)CO)O[C@H]1C[C@H](c2c(-c3ccc(F)cc3)[nH]c3c(F)cc(F)cc32)C1 [Compound 349, (1r, 3r)-3-(5,7-difluoro-2-(4-fluorophenyl)-1H-indol-3-yl)cyclobutyl (1,3-dihydroxy-2-(hydroxymethyl)propan-2-yl)carbamate] | < 250 nM | – |
| O=C(NCCO)O[C@H]1C[C@H](c2c(-c3ccc(F)cc3)[nH]c3c(F)cc(F)cc32)C1 [Compound 350] | 250 to 1000 nM | – |
| CC(C)(O)CCNC(=O)C1CC(Cc2c(-c3ccc(F)cc3)[nH]c3c(F)cc(F)cc23)C1 (stereo not shown) [Compound 327] | > 1000 nM | – |
| CN(CC1CC(c2c(-c3ccc(F)cc3)[nH]c3c(F)cc(F)cc23)C1)C(=O)N1CCC1 (stereo not shown) [Compound 432] | > 1000 nM | – |
| O=C(NC(CO)CO)N[C@H]1C[C@H](c2c(-c3ccc(F)cc3)[nH]c3c(F)cc(F)cc32)C1 [Compound 298] | > 1000 nM | – |
| Cn1cnc(CNC(=O)O[C@H]2C[C@H](c3c(-c4ccc(F)cc4)[nH]c4c(F)cc(F)cc43)C2)c1 [Compound 368] | > 1000 nM | – |
| CC(CO)N(C)C(=O)NC[C@H]1C[C@H](c2c(-c3ccc(F)cc3)[nH]c3c(F)cc(F)cc32)C1 (mixture of isomers) [Compound 412] | > 1000 nM | – |
| CC1(C)CC(NC(=O)NC[C@H]2C[C@H](c3c(-c4ccc(F)cc4)[nH]c4c(F)cc(F)cc43)C2)C(=O)O1 (stereo partly shown) [Compound 403] | > 1000 nM | – |
| Cn1ccnc1CNC(=O)C1CC(Cc2c(-c3ccc(F)cc3)[nH]c3c(F)cc(F)cc23)C1 (stereo not shown) [Compound 338] | > 1000 nM | – |
| CC(CO)(CO)NC(=O)NC[C@H]1C[C@H](c2c(-c3ccc(F)cc3)[nH]c3c(F)cc(F)cc32)C1 [Compound 397] | > 1000 nM | – |
| C[C@@H](O)[C@@H](CO)NC(=O)O[C@H]1C[C@H](c2c(-c3ccc(F)cc3)[nH]c3c(F)cc(F)cc32)C1 [Compound 372] | > 1000 nM | – |
| O=C(NCC(F)(F)F)[C@H]1C[C@@H](c2c(-c3ccc(F)cc3)[nH]c3c(F)cc(F)cc32)C1 [Compound 260] | – | 250 to 1000 nM |
| O=C(N[C@@H](CO)C(F)F)[C@H]1C[C@H](c2c(-c3ccc(F)cc3)[nH]c3c(F)cc(F)cc32)C1 [Compound 230] | – | < 250 nM |
| O=C(CNC(=O)[C@H]1C[C@H](c2c(-c3ccc(F)cc3)[nH]c3c(F)cc(F)cc32)C1)NC[C@@H](O)C(F)(F)F [Compound 233] | – | > 1000 nM |
| O=C(NC1(CO)CC1)[C@H]1C[C@@H](c2c(-c3ccc(F)cc3)[nH]c3c(F)cc(F)cc32)C1 [Compound 253] | – | > 1000 nM |
| O=C(NCC1(O)COC1)NC[C@H]1C[C@H](c2c(-c3ccc(F)cc3)[nH]c3c(F)cc(F)cc32)C1 [Compound 398] | > 1000 nM | – |
| CC1(O)CC(NC(=O)O[C@H]2C[C@H](c3c(-c4ccc(F)cc4)[nH]c4c(F)cc(F)cc43)C2)C1 (stereo partly shown) [Compound 361] | > 1000 nM | – |
| C[C@H](CO)NC(=O)O[C@H]1C[C@H](c2c(-c3ccc(F)cc3)[nH]c3c(F)cc(F)cc32)C1 [Compound 354] | 250 to 1000 nM | – |
| O=C(NCC1(O)CCC1)C1CC(Cc2c(-c3ccc(F)cc3)[nH]c3c(F)cc(F)cc23)C1 (stereo not shown) [Compound 322] | > 1000 nM | – |
| O=C([C@H]1C[C@H](c2c(-c3ccc(F)cc3)[nH]c3c(F)cc(F)cc32)C1)N1CCOC(CO)C1 (stereo partly shown) [Compound 152] | – | > 1000 nM |
| O=C([C@H]1C[C@@H](c2c(-c3ccc(F)cc3)[nH]c3c(F)cc(F)cc32)C1)N1C[C@@H](O)[C@H](O)C1 [Compound 274] | – | > 1000 nM |
| O=C(CN[C@H]1C[C@H](c2c(-c3ccc(F)cc3)[nH]c3c(F)cc(F)cc32)C1)NC1CC1 [Compound 293] | > 1000 nM | – |
| CC(C)[C@@H](CO)NC(=O)O[C@H]1C[C@H](c2c(-c3ccc(F)cc3)[nH]c3c(F)cc(F)cc32)C1 [Compound 377] | > 1000 nM | – |
| O=C1NCC[C@H]1NC(=O)[C@H]1C[C@@H](c2c(-c3ccc(F)cc3)[nH]c3c(F)cc(F)cc32)C1 [Compound 236] | – | > 1000 nM |
| O=C(NC(CO)(CO)CO)[C@H]1C[C@H](c2c(-c3ccc(F)cc3)[nH]c3c(F)cc(F)cc32)C1 [Compound 226] | – | < 250 nM |

From patent US12116343B2, “Inhibitors of APOL1 and methods of using same” (Vertex Pharmaceuticals Incorporated, priority 2020, dated 2024)
